# In US20090247647A1, “Method of Stimulating Proteoglycan Synthesis in Cells” (priority 2006, published 2009):
# Test system: avian growth plate (GP) chondrocytes
# Test: Proteoglycan levels (dimethylmethylene blue assay) in primary growth plate chondrocyte cultures treated with vitamin D3 metabolites
# Type: cell-based, hybrid broiler-strain chickens
# Description: Time and dosage-dependent effects of 1,25(OH)2 Vitamin D3 and 24,25(OH)2 Vitamin D3 on primary cultures of pre- and post-confluent avian growth plate (GP) chondrocytes were examined. Cultures were grown either in a serum-containing culture medium designed to closely mimic normal GP extracellular fluid (DATP5) or a serum-free culture medium. A variety of cellular parameters were measured including proteoglycan (PG), lactate dehydrogenase (LDH) and alkaline phosphatase (ALP) activity and calcium and phosphate mineral deposition in the extracellular matrix were also measured.
# To develop the cell cultures, epiphyseal growth plates were dissected from the tibiae of a large number of 6-8-week-old hybrid broiler-strain chickens. The plates were pooled and the chondrocytes isolated. For these studies, the isolated cells were distributed into 320 identical primary cultures grown in 35 mm dishes in DMEM (2 ml per dish) with 10% fetal bovine serum for the first 3-4 days. Culture media were changed and a supplement of fresh ascorbic acid (25-50 μg/ml) added every 3-4 days for the duration of the experiments. From day 7 onward for 160 of the cultures, the medium was changed to DATP5 mineralization medium. To the other 160 dishes on day 7 the medium was changed to DMEM:HL-1 (1:1) and from day 10 onward to HL-1 serum-free medium (Biowhittaker, Walkersville, Md.). HL-1 chemically defined proprietary media contains transferrin, testosterone, sodium selenite, ethanolamine, saturated and unsaturated fatty acids, and stabilizing proteins (less than 30 μg/ml) and is supplemented with 10 mM β-glycerophosphate. […] All culture media contained 100 IU/ml of penicillin, 100 μg/ml streptomycin, and 0.25 μg/ml amphotericin B.
# Administration of the vitamin D3 metabolites was initiated either before the cells attained confluence (Day 7, pre-confluent tests), or after they had become confluent (Day 14, post-confluent tests), and continued as indicated. Stock solutions (2 mM) of the vitamin D3 metabolites were prepared and further diluted in ethanol so that 2 μl of the test solution was added to 2 ml of culture medium.
# To analyze biochemical activities, cells were harvested from the mm dishes in 1 ml TMT buffer (50 mM Tris, pH 7.5, 0.5 mM MgCl2, 0.05% Triton X-100), the samples being sonicated in a water-bath. Aliquots were taken from each sample for analysis of the following seven parameters: alkaline phosphatase (ALP) and lactate dehydrogenase (LDH) activities, Hoechst DNA, Lowry protein, proteoglycan (PG) and Ca^2+ and Pi mineral content. […] Bovine serum albumin was used as a standard. Proteoglycan content of the cell matrix was analyzed using the dimethylmethylene blue reagent 11 measuring the absorbency difference at 520 and 589 nm. The assay is based on the ability of the sulfated glycosaminoglycans to bind to the cationic dye, dimethylmethylene blue, in solution.
# Thus within each sample, the seven parameters were analyzed and subsequently compared. Overall statistical analysis of differences between the various treatment parameters was performed using ANOVA with post hoc Tukey HSD multiple comparisons.
# [1] = pre-confluent cultures, serum-containing DATP5 medium, early exposure (Day 7-17)
SMILES,"effect of high levels on proteoglycan levels (post-confluent treatment (from Day 14), both serum-containing and serum-free cultures)",effect on proteoglycan levels [1],"increase in proteoglycan levels over the control (pre-confluent cultures, serum-containing DATP5 medium, early exposure (Day 7-17), 10 nM)","effect of supra-physiological levels on proteoglycan levels (pre-confluent cultures, serum-free HL-1 medium, 10 nM)","maximal stimulation of proteoglycan levels (pre-confluent cultures, serum-free HL-1 medium, Day 24) [fold]",effect on proteoglycan (post-confluent exposure (from Day 14)),"effect on proteoglycan levels (pre-confluent cultures, serum-containing DATP5 medium, longer exposure)","concentration of maximal stimulation of proteoglycan levels (pre-confluent cultures, serum-free HL-1 medium) [nM]","effect on proteoglycan formation (pre-confluent cultures, serum-free media)","effect of supra-physiological levels on proteoglycan formation (pre-confluent cultures, serum-free media, 100 nM)","maximal effects on proteoglycan formation relative to those with 1,25(OH)2D3 (pre-confluent cultures, serum-free media, at 10 nM)"
"C=C1/C(=C\C=C2/CCC[C@]3(C)[C@@H]([C@H](C)CCCC(C)(C)O)CC[C@@H]23)C[C@@H](O)C[C@@H]1O [1,25(OH)2D3, 1,25 Hydroxyvitamin D3]","no longer inhibitory, but actually increased proteoglycan levels",marked dosage-dependent increase,more than four-fold,marked reduction in proteoglycan levels,~7,,,,,,
"C=C1CC[C@H](O)C/C1=C/C=C1\CCC[C@]2(C)[C@@H]([C@H](C)CC[C@@H](O)C(C)(C)O)CC[C@@H]12 [24,25(OH)2D3, 24,25 Hydroxyvitamin D3]",,minimal stimulation,,,,only small effects,"significant increases in proteoglycan levels, equal to or greater than those caused by 1,25(OH)2D3",10,stimulated proteoglycan formation,inhibitory to proteoglycan formation,only about half
